Assay results as given in patent US11208497B2, “Antibodies comprising C-terminal light chain polypeptide extensions and conjugates and methods of use thereof” (ZYMEWORKS INC., priority 2013, dated 2021).

Tested on: CD30 antigen positive Karpas 299 cells
Test: In vitro cell proliferation assay, Karpas 299 cells (Example 18)
Assay type: cell-based

## B-MCvcPABC-MMAE: Brentuximab (B) without light chain extension conjugated to MCvcPABC-MMAE, DAR 3.5 [reference compound]
  EC50: 8 pM
